Measurements as given in ChEMBL document CHEMBL2157914, “Synthesis, anti-inflammatory and antimicrobial evaluation of novel 1-acetyl-3,5-diaryl-4,5-dihydro (1H) pyrazole derivatives bearing urea, thiourea and sulfonamide moieties” (2012).
Values after ≈ are worked out from the molar mass of the structure shown. Active and inactive are the calls of the source. The calls are words filed in the database; no cut-off is given here.

What was measured:
THP-1 [1] = assay: Antiinflammatory activity in human THP1 cells assessed as inhibition of LPS-stimulated TNFalpha production at 10 uM incubated for 30 mins prior to LPS-challenge measured 24 hrs post LPS challenge by ELISA; type: functional
Fusarium solani [2] = assay: Antifungal activity against Fusarium solani MTCC 350 after 2 to 3 days by agar well diffusion method; type: functional
Candida albicans [3] = assay: Antifungal activity against Candida albicans MTCC 227 after 2 to 3 days by agar well diffusion method; type: functional
Escherichia coli = assay: Antibacterial activity against Escherichia coli MTCC 443 after 24 hrs by agar well diffusion method; type: functional; details: MTCC 443, 24 h
THP-1 [4] = assay: Antiinflammatory activity in human THP1 cells assessed as inhibition of LPS-stimulated IL-6 production at 10 uM incubated for 30 mins prior to LPS-challenge measured 24 hrs post LPS-challenge by ELISA; type: functional
Staphylococcus aureus [5] = assay: Antibacterial activity against Staphylococcus aureus MTCC 96 after 24 hrs by agar well diffusion method; type: functional; details: MTCC 96, 24 h
Salmonella typhimurium [6] = assay: Antibacterial activity against Salmonella typhimurium MTCC 98 after 24 hrs by agar well diffusion method; type: functional, Salmonella enterica subsp. enterica serovar Typhimurium; details: Salmonella enterica, MTCC 98, 24 h
Bacillus subtilis [7] = assay: Antibacterial activity against Bacillus subtilis MTCC 441 after 24 hrs by agar well diffusion method; type: functional; details: MTCC 441, 24 h
Aspergillus niger [8] = assay: Antifungal activity against Aspergillus niger MTCC 281 up to 200 ug/mL after 2 to 3 days by agar well diffusion method; type: functional, organism-based
Aspergillus flavus [9] = assay: Antifungal activity against Aspergillus flavus MTCC 277 after 2 to 3 days by agar well diffusion method; type: functional
Aspergillus niger [10] = assay: Antifungal activity against Aspergillus niger MTCC 281 after 2 to 3 days by agar well diffusion method; type: functional
Fusarium solani [11] = assay: Antifungal activity against Fusarium solani MTCC 350 up to 200 ug/mL after 2 to 3 days by agar well diffusion method; type: functional, organism-based
Staphylococcus aureus [12] = assay: Antibacterial activity against Staphylococcus aureus MTCC 96 up to 200 ug/mL after 24 hrs by agar well diffusion method; type: functional, organism-based
Salmonella typhimurium [13] = assay: Antibacterial activity against Salmonella typhimurium MTCC 98 up to 200 ug/mL after 24 hrs by agar well diffusion method; type: functional, organism-based; details: Salmonella enterica subsp. enterica serovar Typhimurium
Aspergillus flavus [14] = assay: Antifungal activity against Aspergillus flavus MTCC 277 up to 200 ug/mL after 2 to 3 days by agar well diffusion method; type: functional, organism-based
Candida albicans [15] = assay: Antifungal activity against Candida albicans MTCC 227 up to 200 ug/mL after 2 to 3 days by agar well diffusion method; type: functional, organism-based
Bacillus subtilis [16] = assay: Antibacterial activity against Bacillus subtilis MTCC 441 up to 200 ug/mL after 24 hrs by agar well diffusion method; type: functional, organism-based

Row | MIC (Fusarium solani [2]) [µg/mL] | MIC (Candida albicans [3]) [µg/mL] | MIC (Escherichia coli) [µg/mL] | MIC (Staphylococcus aureus [5]) [µg/mL] | MIC (Salmonella typhimurium [6]) [µg/mL] | MIC (Bacillus subtilis [7]) [µg/mL] | MIC (Aspergillus flavus [9]) [µg/mL] | MIC (Aspergillus niger [10]) [µg/mL] | Compound | inhibition at 10 µM (THP-1 [1]) [%] | inhibition at 10 µM (THP-1 [4]) [%] | Activity (Aspergillus niger [8]) | Activity (Fusarium solani [11]) | Activity (Staphylococcus aureus [12]) | Activity (Salmonella typhimurium [13]) | Activity (Aspergillus flavus [14]) | Activity (Candida albicans [15]) | Activity (Bacillus subtilis [16])
1 | 90 (≈ 178 µM) | 90 (≈ 178 µM) | 20 (≈ 39.6 µM) | 45 (≈ 89.2 µM) | 35 (≈ 69.4 µM) | 65 (≈ 129 µM) | 90 (≈ 178 µM) | – | COc1ccc(NC(=S)Nc2ccc(C3CC(c4ccc(OC)c(OC)c4)=NN3C(C)=O)cc2)cc1 (stereo not drawn) | 3 | 10 | inactive | – | – | – | – | – | –
2 | – | 90 (≈ 244 µM) | 65 (≈ 176 µM) | 90 (≈ 244 µM) | 90 (≈ 244 µM) | 50 (≈ 135 µM) | 90 (≈ 244 µM) | 90 (≈ 244 µM) | COc1ccc(C2=NN(C(C)=O)C(c3ccc([N+](=O)[O-])cc3)C2)cc1OC (stereo not drawn) | 0 | 0 | – | inactive | – | – | – | – | –
3 | – | – | 95 (≈ 175 µM) | – | – | – | – | – | COc1ccc(C2=NN(C(C)=O)C(c3ccc(NC(=S)Nc4ccccc4C(F)(F)F)cc3)C2)cc1OC (stereo not drawn) | 40 | 65 | inactive | inactive | inactive | inactive | inactive | inactive | inactive
4 | 65 (≈ 132 µM) | 70 (≈ 142 µM) | 75 (≈ 152 µM) | 90 (≈ 182 µM) | 90 (≈ 182 µM) | 90 (≈ 182 µM) | 90 (≈ 182 µM) | 90 (≈ 182 µM) | COc1ccc(C2=NN(C(C)=O)C(c3ccc(NS(=O)(=O)c4ccc(C)cc4)cc3)C2)cc1OC (stereo not drawn) | 0 | 0 | – | – | – | – | – | – | –
5 | 80 (≈ 159 µM) | 65 (≈ 129 µM) | 90 (≈ 178 µM) | 80 (≈ 159 µM) | 90 (≈ 178 µM) | 65 (≈ 129 µM) | 70 (≈ 139 µM) | 40 (≈ 79.3 µM) | COc1ccc(C2=NN(C(C)=O)C(c3ccc(NS(=O)(=O)c4ccccc4C#N)cc3)C2)cc1OC (stereo not drawn) | 10 | 31 | – | – | – | – | – | – | –
6 | 90 (≈ 183 µM) | – | 80 (≈ 162 µM) | 80 (≈ 162 µM) | – | – | – | – | COc1ccc(C2=NN(C(C)=O)C(c3ccc(NC(=S)Nc4ccc(F)cc4)cc3)C2)cc1OC (stereo not drawn) | 3 | 10 | inactive | – | – | inactive | inactive | inactive | inactive
7 | 20 (≈ 36.9 µM) | 25 (≈ 46.1 µM) | 25 (≈ 46.1 µM) | 30 (≈ 55.3 µM) | 45 (≈ 82.9 µM) | 20 (≈ 36.9 µM) | 20 (≈ 36.9 µM) | 35 (≈ 64.5 µM) | COc1ccc(C2=NN(C(C)=O)C(c3ccc(NC(=O)Nc4ccc(OC(F)(F)F)cc4)cc3)C2)cc1OC (stereo not drawn) | 8 | 11 | – | – | – | – | – | – | –
8 | 75 (≈ 149 µM) | 90 (≈ 178 µM) | 90 (≈ 178 µM) | – | – | – | – | – | COc1ccccc1NC(=S)Nc1ccc(C2CC(c3ccc(OC)c(OC)c3)=NN2C(C)=O)cc1 (stereo not drawn) | 0 | 0 | inactive | – | inactive | inactive | inactive | – | inactive
9 | 60 (≈ 111 µM) | 40 (≈ 73.7 µM) | 40 (≈ 73.7 µM) | 55 (≈ 101 µM) | 60 (≈ 111 µM) | 40 (≈ 73.7 µM) | 30 (≈ 55.3 µM) | 75 (≈ 138 µM) | COc1ccc(C2=NN(C(C)=O)C(c3ccc(NC(=O)Nc4ccccc4OC(F)(F)F)cc3)C2)cc1OC (stereo not drawn) | 58 | 75 | – | – | – | – | – | – | –
10 | 35 (≈ 62.1 µM) | 45 (≈ 79.9 µM) | 15 (≈ 26.6 µM) | 20 (≈ 35.5 µM) | 65 (≈ 115 µM) | 45 (≈ 79.9 µM) | 20 (≈ 35.5 µM) | 25 (≈ 44.4 µM) | COc1ccc(C2=NN(C(C)=O)C(c3ccc(NS(=O)(=O)c4ccc(OC(F)(F)F)cc4)cc3)C2)cc1OC (stereo not drawn) | 8 | 30 | – | – | – | – | – | – | –
11 | 90 (≈ 167 µM) | – | 90 (≈ 167 µM) | – | 90 (≈ 167 µM) | 90 (≈ 167 µM) | – | – | COc1ccc(C2=NN(C(C)=O)C(c3ccc(NS(=O)(=O)c4ccc(OC)c(OC)c4)cc3)C2)cc1OC (stereo not drawn) | 0 | 0 | inactive | – | inactive | – | inactive | inactive | –
12 | 15 (≈ 36 µM) | 20 (≈ 48.1 µM) | – | – | – | – | 20 (≈ 48.1 µM) | 15 (≈ 36 µM) | Clc1ccc(COC(Cn2ccnc2)c2ccc(Cl)cc2Cl)c(Cl)c1 (stereo not drawn) [MICONAZOLE] | – | – | – | – | – | – | – | – | –

Row | Compound | MIC (Fusarium solani [2]) [µg/mL] | MIC (Candida albicans [3]) [µg/mL] | MIC (Escherichia coli) [µg/mL] | MIC (Staphylococcus aureus [5]) [µg/mL] | MIC (Salmonella typhimurium [6]) [µg/mL] | MIC (Bacillus subtilis [7]) [µg/mL] | MIC (Aspergillus flavus [9]) [µg/mL] | MIC (Aspergillus niger [10]) [µg/mL] | inhibition at 10 µM (THP-1 [1]) [%] | inhibition at 10 µM (THP-1 [4]) [%] | Activity (Aspergillus niger [8]) | Activity (Fusarium solani [11]) | Activity (Staphylococcus aureus [12]) | Activity (Salmonella typhimurium [13]) | Activity (Aspergillus flavus [14]) | Activity (Candida albicans [15]) | Activity (Bacillus subtilis [16])
13 | O=C(O)c1cn(C2CC2)c2cc(N3CCNCC3)c(F)cc2c1=O [CIPROFLOXACIN] | – | – | 15 (≈ 45.3 µM) | 20 (≈ 60.4 µM) | 20 (≈ 60.4 µM) | 15 (≈ 45.3 µM) | – | – | – | – | – | – | – | – | – | – | –
